The conditions of the experiment: for Removing phosphate %: 0.5 g in 100 ml, 37° C. The method, then:
Lanthanum carbonate 0.5 g was added to 0.85% NaCl solution 100 ml (pH 6.8) and 0.85% NaCl solution 100 ml (pH7.8), respectively. Then, sufficient quantities of Na2HPO4 were added to the two solutions, stirred at 37° C. Filtered solutions were obtained at 10 min, 30 min, 40 min and 60 min, respectively. Phosphate content was determined and the percentage of removing phosphate was computed.

Where two headings read alike, the source gives them in different places.

In turn, `O=C([O-])[O-].O=C([O-])[O-].O=C([O-])[O-].[La+3].[La+3]` [Lanthanum carbonate] came in with a Removing phosphate % (0.85% NaCl pH 6.8, 10 min) of 6.7%; a Removing phosphate % (0.85% NaCl pH 6.8, 30 min) of 13.7%; a Removing phosphate % (0.85% NaCl pH 6.8, 40 min) of 16.9%; a Removing phosphate % (0.85% NaCl pH 6.8, 60 min) of 20.8%; a Removing phosphate % (0.85% NaCl pH 7.8, 10 min) of 1.4%; a Removing phosphate % (0.85% NaCl pH 7.8, 30 min) of less than 2.0%. The Removing phosphate % by setting is: (0.85% NaCl pH 7.8, 40 min) less than 2.0%; (0.85% NaCl pH 7.8, 60 min) less than 2.0%. Moreover, the “phosphate removal, result in words” value (solution whose PH was similar to that of human large intestine (pH 7.8)) is recorded as “unable to remove phosphate” and the “phosphate removal, result in words” value (solution whose PH was similar to that of human small intestine (pH 6.8)) is given as “removed less phosphate”.

These data come from patent US7662364B2, “Drug for hyperphospheremia and its preparative method” (priority 2006, dated 2010).
